Laboratory results reported in ChEMBL document CHEMBL3351290, “Structural studies provide clues for analog design of specific inhibitors of Cryptosporidium hominis thymidylate synthase-dihydrofolate reductase” (Bioorg Med Chem Lett, 2014).

Columns and labels:
Thymidylate synthase = Thymidylate synthase (Homo sapiens, UniProt P04818); assay: Inhibition of human thymidylate synthase
[1] = Toxicity in Cryptosporidium hominis Iowa sporozoites infected human HCT8 cells assessed as effect on cell viability by microscopy; format: cell-based; settings: hct-8
[2] = Toxicity in Cryptosporidium hominis Iowa sporozoites infected human HCT8 cells assessed as effect on cell morphology by microscopy; format: cell-based; settings: hct-8
Cryptosporidium hominis [3] = assay: Antiparasitic activity against compound pre-treated Cryptosporidium hominis Iowa sporozoites infected in human HCT8 cells assessed as reduction in parasite infection; format: functional, organism-based; settings: HCT-8
Dihydrofolate reductase = target: T1, Dihydrofolate reductase (Homo sapiens, UniProt P00374); assay: Inhibition of human DHFR
T1 sequence (P00374 whole entry): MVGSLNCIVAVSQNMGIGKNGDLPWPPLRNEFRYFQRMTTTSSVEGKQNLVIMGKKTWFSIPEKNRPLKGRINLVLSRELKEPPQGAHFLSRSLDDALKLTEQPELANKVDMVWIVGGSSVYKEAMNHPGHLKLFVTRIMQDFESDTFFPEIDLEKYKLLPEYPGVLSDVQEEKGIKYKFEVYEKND

Cryptosporidium hominis [4] = assay: Antiparasitic activity against Cryptosporidium hominis Iowa intracellular forms infected in human HCT8 cells assessed as reduction in parasite infection dosed 2 hrs after parasite infection; format: functional, organism-based; settings: HCT-8, 2 h
[5] = Toxicity in Cryptosporidium hominis Iowa sporozoites infected human HCT8 cells assessed as effect on RNA levels; format: cell-based; settings: hct-8

Chain of Thymidylate synthase (P04818 whole entry): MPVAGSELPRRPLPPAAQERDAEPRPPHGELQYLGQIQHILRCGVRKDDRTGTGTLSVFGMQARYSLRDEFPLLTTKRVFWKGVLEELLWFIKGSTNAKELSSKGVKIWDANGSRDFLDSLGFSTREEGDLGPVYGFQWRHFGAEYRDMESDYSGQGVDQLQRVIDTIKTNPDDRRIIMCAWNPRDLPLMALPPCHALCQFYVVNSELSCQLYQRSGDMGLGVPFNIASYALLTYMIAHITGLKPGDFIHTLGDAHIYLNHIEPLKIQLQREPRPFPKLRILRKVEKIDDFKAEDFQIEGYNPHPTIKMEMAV

## Nc1nc2[nH]cc(Cc3ccc(C(=O)N[C@@H](CCC(=O)O)C(=O)O)cc3)c2c(=O)[nH]1
Thymidylate synthase
  IC50: 1800 nM
[1]
  Activity: Non-toxic
[2]
  Activity: Non-toxic
Cryptosporidium hominis [3]
  EC50: 1000 nM
Dihydrofolate reductase
  IC50: 640 nM
Cryptosporidium hominis [4]
  EC50: 1000 nM
[5]
  Activity: Non-toxic
